# Measured values: US5783597A, “2,5-disubstituted thiophenes: inhibitors of 5-lipoxygenase and inducible cyclooxygenase (COX-2) enzymes, composition and use” (Ortho Pharmaceutical Corporation, priority 1997, dated 1998)
# What was measured:
# [1] = system: inflammatory cells (leukocyte influx); test: Carrageenan-induced inflammation in subcutaneous chambers in beagle dogs: cellular (leukocyte) influx (Procedure IV); assay type: in vivo; conditions: oral
# Procedure: (§1) Carrageenan-Induced Localized Inflammation In Subcutaneous Chambers Implanted In Beagle Dogs
# (§2) Sterile perforated teflon chambers (wiffle golf balls) were surgically implanted subcutaneously in the dorsal neck fold of beagle dogs (8-13 kg, mixed sex). After a recovery period of 1 month, a 1 ml sample of fluid exudate from each dog was aspirated from within the chamber using a 1 ml syringe and 20 gauge 1 inch needle inserted through one of the perforations in the ball. Immediately after obtaining the sample, 1.5 ml of 0.33% sterile carrageenan lambda (Sigma Chemical Co., St. Louis, Mo.) was injected into the chamber. Dilutions of the baseline samples were made in saline and analyzed for leukocyte count using a Coulter Counter (6.08-50 μm range). The sample was also analyzed for concentrations of PGE2 and LTB4 by adding 200 μl of sample to 1 ml ethanol and centrifuging the precipitate (1,500 X g, 7 min). The supernatant was aspirated and stored at 0° C. until enzyme linked immunosorbant assays (ELISAs) were performed (ELISA Technologies, Lexington, Ky.). […]
# (§3) Drug effects can be evaluated on several important aspects of inflammation using this in-vivo assay. […] Selectivity of a COX inhibitor can be determined by comparing PGE2 inhibition in peripheral blood (COX-1) to that of the inflammatory fluid exudate in the chamber (COX-2).
# LTB4 levels = test: Carrageenan-induced inflammation in subcutaneous chambers in beagle dogs: LTB4 levels in fluid exudate (Procedure IV); assay type: in vivo; conditions: oral
# Procedure: as §1, §2, §3
# LTB4 production = test: Ex vivo LTB4 production in peripheral (whole) blood of beagle dogs after oral dosing (Procedure IV)
# Procedure: as §2, with “Ky.). Samples were also drawn at 5 and 24 hours post carrageenan challenge and treated in a similar manner.” for “Ky.).”
# as §3
# 5-lipoxygenase (5-LO) = target: T1, 5-lipoxygenase (5-LO) (Rattus norvegicus, UniProt P12527); test: RBL-1 cell 5-lipoxygenase and cyclooxygenase - Homogenate (Procedure I); assay type: biochemical; conditions: RBL-1 homogenate supernatant, 5-HETE; read-out: Procedure I (5-LO) Homog. IC50
# T1 construct: endogenous in cells; host or cells: intact RBL-1 (rat basophilic leukemia) cells, stimulated with calcium ionophore A23187
# T1 sequence (P12527 1-673): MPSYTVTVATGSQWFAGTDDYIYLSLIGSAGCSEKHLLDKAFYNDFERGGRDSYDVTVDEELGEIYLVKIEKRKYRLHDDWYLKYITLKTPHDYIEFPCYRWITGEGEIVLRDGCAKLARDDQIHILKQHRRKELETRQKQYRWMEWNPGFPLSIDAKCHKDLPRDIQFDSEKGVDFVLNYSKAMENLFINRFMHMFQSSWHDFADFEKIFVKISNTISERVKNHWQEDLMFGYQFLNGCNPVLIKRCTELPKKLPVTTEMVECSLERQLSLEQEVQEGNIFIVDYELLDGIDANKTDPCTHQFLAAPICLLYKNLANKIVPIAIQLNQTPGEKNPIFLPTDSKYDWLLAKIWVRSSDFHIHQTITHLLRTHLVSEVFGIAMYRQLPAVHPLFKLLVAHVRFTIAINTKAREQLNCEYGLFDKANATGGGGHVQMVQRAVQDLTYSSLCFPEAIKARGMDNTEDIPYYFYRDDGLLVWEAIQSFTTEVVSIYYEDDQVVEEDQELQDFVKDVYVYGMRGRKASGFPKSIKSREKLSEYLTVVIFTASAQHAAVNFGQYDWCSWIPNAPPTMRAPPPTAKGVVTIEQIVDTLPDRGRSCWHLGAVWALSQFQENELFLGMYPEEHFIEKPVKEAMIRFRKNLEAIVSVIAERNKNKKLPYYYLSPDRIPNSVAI
# Procedure: RBL-1 cell 5-lipoxygenase and cyclooxugenase - Homogenate
# Rat basophilic leukemia cells (RBL-1; 5×10^7 viable cells/mL) were disrupted by homogenization on ice (four 20 sec bursts) with a Brinkman polytron. […] The homogenate was then centrifuged at 9,220×g for 48 minutes at 4° C. The pellet was discarded and the supernatant was saved as the source of enzymes. The supernatant was pre-incubated for five minutes at 37° C. in the presence of 2 mM of CaCl2 and compound or vehicle (1% DMSO). The conversion of AA into products by CO and LO was initiated by adding 10 μL (50 μCi) of 1-^14 C-AA to each tube and incubated at 37° C. for 20 minutes. The reaction was stopped by adjusting the pH of each sample to 3 to 3.5 with 2M formic acid. Samples were extracted with three volumes of chloroform to isolate the products of 5-LO formed during the reaction. Fractions were dried under nitrogen, then resuspended in 40 μL of chloroform and spotted onto silica gel HL plates. The plates were developed in A-9 solvent. The dried plates were analyzed using a Bioscan Imaging TLC scanner to determine the percentage of radiolabelled M converted to 5-HETE (LO product) and PGD2 (CO product) in each sample.
smiles,measurement,setting,value
CS(=O)(=O)Nc1ccc(Oc2ccc(F)cc2)s1 [Example 1],ED50,"[1]; Canis lupus familiaris, Leukocyte, inflammatory chamber exudate, read-out: ED50 for inhibition of cellular influx",< 0.01 mg/kg
same,inhibition of accumulation of inflammatory cells in the exudate,[1]; inflammatory chambers,dose related inhibition
same,ED50,"LTB4 levels; Canis lupus familiaris, inflammatory chamber exudate, read-out: ED50 for inhibition of fluid LTB4 levels",< 0.01 mg/kg
same,inhibition of LTB4 levels measured in the fluid,LTB4 levels; inflammatory chambers,dose related inhibition
same,ED50,"LTB4 production; Canis lupus familiaris, 5 h, five hours after oral administration, ex vivo, read-out: inhibition of peripheral LTB4 production, IC50",4.4 mg/kg
same,inhibition of LTB4 production in whole blood,"LTB4 production; at 24 hours following dosing, oral",No inhibition of LTB4 production in whole blood was detected
same,IC50,5-lipoxygenase (5-LO),130 nM
